Source: PubChem BioAssay (NCI)
“And” between values parts separate entries of the source, which are not always exact repeats. Equal entries are not always repeated.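 Dose response: 5 concentrations. Exposure: 48 h. Format: 96-well plates. Endpoint: linear interpolation; highest concentration if not reached. GI50 is the concentration that inhibits growth by half. TGI marks complete inhibition of growth.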

What was measured:
Experiment in all cases: NCI-60 cell line screen, 48 h
A549 NSCLC = system: A549 NSCLC
BT-549 breast = system: BT-549 breast
CCRF-CEM leukemia = system: CCRF-CEM leukemia
DU-145 prostate = system: DU-145 prostate
HCC-2998 colon = system: HCC-2998 colon
M14 melanoma = system: M14 melanoma
MALME-3M melanoma = system: MALME-3M melanoma
MOLT-4 leukemia = system: MOLT-4 leukemia
NCI-H226 lung = system: NCI-H226 lung
RPMI-8226 leukemia = system: RPMI-8226 leukemia

Row | Structure (SMILES) | TGI (A549 NSCLC) | TGI (BT-549 breast) | TGI (CCRF-CEM leukemia) | TGI (DU-145 prostate) [µM] | TGI (HCC-2998 colon) | TGI (M14 melanoma) | TGI (MALME-3M melanoma) | TGI (MOLT-4 leukemia) [µM] | TGI (NCI-H226 lung) | TGI (RPMI-8226 leukemia) [µM] | GI50 (A549 NSCLC) | GI50 (BT-549 breast) | GI50 (CCRF-CEM leukemia) | GI50 (DU-145 prostate) | GI50 (HCC-2998 colon) | GI50 (M14 melanoma) | GI50 (MALME-3M melanoma) | GI50 (MOLT-4 leukemia) | GI50 (NCI-H226 lung) | GI50 (RPMI-8226 leukemia) [µM]
1 | O=[N+]([O-])/C=C/c1cc2ccc3ccccc3c2[nH]1 | 4.88 µM | 4.44 µM | 2.8 µM | 3.9 | 3.5 µM | 3.33 µM | 3.31 µM | > 100 | 2.78 µM | 0.708 | – | – | – | – | – | – | – | – | – | –
2 | O=C(O)c1ccc(C(=O)O)c(C(=O)O)c1.[NH-]C1CCCCC1[NH-].[Pt+2] | 39 µM | 54.2 µM | 66.8 µM | 84.1 | 48.7 µM | 37.4 µM | 22.8 µM | 20 | 32.2 µM | 48.9 | 1.87 µM | 23.8 µM | 0.858 µM and 4.49 µM | 11.1 µM | 13.4 µM | 9.61 µM | 1.67 µM | 0.5 µM and 4.84 µM | 2.02 µM | 0.581
3 | Oc1ccc(Cc2ccc(O)c(C3CC(c4ccc(Cl)cc4)=NN3)c2)cc1C1CC(c2ccc(Cl)cc2)=NN1 (configuration not stated) | > 100 µM | 23.3 µM | > 100 µM | > 100 | > 30.8 µM | > 39.3 µM | > 100 µM | > 100 | > 44.3 µM | > 100 | 2.79 µM | 4.19 µM | 1.94 µM | 3.22 µM | 3.71 µM | 3.93 µM | 5.03 µM | 2.84 µM | 4.29 µM | 3.89
4 | NCCCNc1nc2ccc(Cl)cc2c2c(=O)c3cc(F)ccc3sc12 | 3.89 µM | 29.6 µM | 6.65 µM | 4.05 | 4.38 µM | 14.2 µM | 23.2 µM | 3.95 | 25.1 µM | 9.79 | 1.77 µM | 14.3 µM | 2.35 µM | 1.97 µM | 1.89 µM | 3.6 µM | 6.91 µM | 1.87 µM | 8.58 µM | 2.77
5 | c1ccc(-c2cn(-c3ccccc3)c(-c3ccccc3)n2)cc1 | 26.6 µM | 30.5 µM | 7.06 µM | 23.8 | 20.6 µM | 23.8 µM | 36.7 µM | > 100 | 37.7 µM | 5.47 | 13.2 µM | 16 µM | 2.75 µM | 11.6 µM | 7.82 µM | 11 µM | 19.5 µM | 3.16 µM | 19.8 µM | 2.31
6 | CCC(C)CC(C)C(=O)c1c(O)ccn(O)c1=O (configuration not stated) | 36.3 µM | 37.9 µM | > 100 µM | > 100 | > 100 µM | 15 µM | 10.1 µM | 17.6 | 75.3 µM | 36.8 | 1.78 µM | 2.56 µM | 0.6 µM | 2.1 µM | 6 µM | 1.61 µM | 1.44 µM | 1.06 µM | 15.8 µM | 0.901
7 | COc1cc2c3c(n(CCCN4CCCNCC4)c(=O)c2cc1OC)-c1cc2c(cc1C3=O)OCO2 | 6.95 µM | 11.5 µM | 8.06 µM | 2.02 | 9.45 µM | 7.12 µM | 11.9 µM | 50 | 3.03 µM | 2.1 | 0.322 µM | 2.2 µM | 0.0721 µM | 0.166 µM | 3.07 µM | 0.521 µM | 2.47 µM | 0.0384 µM | 0.303 µM | 0.571
8 | NC(=N\N=C/c1ccc(Cl)cc1Cl)/C(N)=N\N=C/c1ccc(Cl)cc1Cl | > 100 µM | > 93.2 µM | > 100 µM | > 100 | > 100 µM | > 100 µM | > 100 µM | > 100 | 98 µM | > 100 | 5.99 µM | 45.3 µM | 36.5 µM | > 100 µM | > 94.7 µM | > 83.1 µM | 41.3 µM | > 100 µM | 9.92 µM | > 100
9 | C=C(CN1CCN(c2ccccc2C(F)(F)F)CC1)c1ccc(C(=O)Nc2ccccc2N)cc1 | 33.8 µM | 14 µM | 0.546 µM | > 49.5 | 13.9 µM | > 100 µM | > 64.1 µM | 2.55 | 48.1 µM | 1.01 | 4.17 µM | 2.67 µM | 0.0728 µM | 7.51 µM | 3.83 µM | 4.47 µM | 4.17 µM | 0.125 µM | 7.79 µM | 0.164
10 | O=C(/C=C/c1cccc(S(=O)(=O)Nc2ccccc2)c1)NO | 17.8 µM and 44.4 µM | 44.5 µM and 71.9 µM | 58.2 µM and > 100 µM | 17.8 | 2.48 µM and 1.91 µM | 12.9 µM and 12.5 µM | 13.8 µM and 3.12 µM | > 29.9 | 11.5 µM and 5.11 µM | – | 0.459 µM and 0.0805 µM | 3.53 µM and 2.16 µM | – | 0.444 µM and 0.111 µM | 0.519 µM and 0.258 µM | 0.451 µM and 0.441 µM | 0.251 µM and 0.0447 µM | – | 2.34 µM and 0.694 µM | 0.248
11 | O=Cc1ccc(-c2ccc(-c3ccc(C=O)o3)[se]2)o1 | > 100 µM | > 100 µM | > 100 µM | > 100 | > 100 µM | > 100 µM | > 100 µM | > 100 | > 100 µM | > 100 | > 100 µM | > 100 µM | > 100 µM | > 100 µM | > 100 µM | > 100 µM | > 100 µM | > 100 µM | 41.7 µM | > 100
12 | COc1cc(/C=C/C(=O)c2c(C)nc3ccccc3c2C)ccc1OCCCCOc1cc2c(cc1OC)C(=O)N1CCC[C@H]1C=N2 | 4.17 µM | 0.482 µM | 1.48 µM | 1.13 | 1.16 µM | > 100 µM | 2.37 µM | 1.12 | 3.26 µM | 0.585 | 0.46 µM | 0.188 µM | 0.225 µM | 0.368 µM | 0.519 µM | 1.16 µM | 0.554 µM | 0.325 µM | 1.3 µM | 0.209
13 | CCOc1cc(/C=C/C(=O)C(C(=O)/C=C/c2ccc(OC(=O)CNc3nnc(C)s3)c(OCC)c2)C(=O)CNc2nnc(C)s2)ccc1OC(=O)CNc1nnc(C)s1 | 7.44 µM | 5.33 µM | 1.06 µM | 4.18 | 3.33 µM | 10 µM | 7.09 µM | 6.56 | 4.54 µM | > 100 | 2.36 µM | 1.98 µM | 0.251 µM | 1.72 µM | 1.69 µM | 2.4 µM | 2.36 µM | 0.681 µM | 1.92 µM | 0.34
14 | NS(=O)(=O)c1ccc(N=C2C(=O)Nc3ccccc32)cc1 | > 100 µM | > 100 µM | > 100 µM | > 100 | > 100 µM | > 100 µM | > 100 µM | > 100 | > 100 µM | > 100 | – | – | – | – | – | – | – | – | – | –
15 | COc1ccc(C2CC(c3ccc4ccccc4c3)=NN2c2nc(O)c(C3=c4cc(OC)ccc4=NC3=O)s2)cc1 (configuration not stated) | 0.223 µM | 17.5 µM | > 43.3 µM | 14.1 | 0.265 µM | 0.726 µM | 0.0655 µM | 0.91 | 0.248 µM | 3.93 | 0.0612 µM | 0.978 µM | 0.284 µM | 0.0449 µM | 0.0762 µM | 0.072 µM | 0.0243 µM | 0.11 µM | 0.0581 µM | 0.27
16 | COc1ncc(-c2ccc3nccc(C#CCN4CCN(S(C)(=O)=O)CC4)c3c2)cc1NS(=O)(=O)c1ccc(F)cc1F | 7.68 µM | 0.874 µM | 2.49 µM | 12.6 | 1.25 µM | 2.38 µM | 0.214 µM | 2.29 | 2.27 µM | 1.83 | 0.083 µM | 0.039 µM | 0.101 µM | 0.108 µM | 0.0635 µM | 0.0855 µM | 0.015 µM | 0.0391 µM | 0.298 µM | 0.256
17 | O=C(Nc1ccc(I)cc1)c1cccc([N+](=O)[O-])c1O | > 100 µM | 19 µM | 29.7 µM | > 100 | 44.3 µM | 49.5 µM | 9.12 µM | 92.3 | 33.5 µM | 6.73 | 4.52 µM | 3.01 µM | 2.76 µM | 6.46 µM | 4.19 µM | 3.54 µM | 2.47 µM | 3.38 µM | 2.81 µM | 1.66
18 | FC(F)(F)c1ccc(-c2ncc(-c3ccc(C(F)(F)F)cc3)c(NCc3cc(C(F)(F)F)cc(C(F)(F)F)c3)n2)cc1 | > 100 µM | > 100 µM | > 100 µM | > 100 | 46.7 µM | > 100 µM | 46.3 µM | 71.8 | 83.8 µM | 35.3 | 4.05 µM | 7.91 µM | 4.34 µM | 5.25 µM | 5.76 µM | 4.38 µM | 6.44 µM | 4.35 µM | 3.76 µM | 4.24
